In patent US7825264B2, “Substituted heterocycles, their use as medicament, and pharmaceutical preparations comprising them” (sanofi-aventis, priority 2005, dated 2010):

Target: T1, Human Kv1.5 channels (Homo sapiens, UniProt P22460)
T1 construct: expressed in transfected cells; host or cells: Xenopus laevis oocytes injected with RNA synthesized in vitro
Assay: Activity on the Kv1.5 channel: two-microelectrode voltage clamp on Xenopus oocytes expressing Kv1.5
Type: cell-based
Conditions: human Kv1.5 expressed in Xenopus oocytes, room temperature, Hill equation; read-out: Kv1.5 IC-50
Method: Determination of the Activity on the Kv1.5 Channel
Human Kv1.5 channels were expressed in xenopus oocytes. For this purpose, firstly oocytes were isolated from Xenopus laevis and defolliculated. Kv1.5-encoding RNA synthesized in vitro was then injected into these oocytes. After Kv1.5 protein expression for 1-7 days, Kv1.5 currents were measured on the oocytes using the two-microelectrode voltage clamp technique. The Kv1.5 channels were in this case usually activated with voltage jumps lasting 500 ms to 0 mV and 40 mV. A solution of the following composition flowed through the bath: NaCl 96 mM, KCl 2 mM, CaCl2 1.8 mM, MgCl2 1 mM, HEPES 5 mM (titrated to pH 7.4 with NaOH). These experiments were carried out at room temperature. The following were employed for data acquisition and analysis: Geneclamp amplifier (Axon Instruments, Foster City, USA) and MacLab D/A converter and software (ADInstruments, Castle Hill, Australia). The substances of the invention were tested by adding them in various concentrations to the bath solution. The effects of the substances were calculated as percent inhibition of the Kv1.5 control current which was obtained when no substance was added to the solution. The data were then extrapolated using the Hill equation in order to determine the inhibitory concentrations IC50 for the respective substances.

T1 sequence (P22460 whole entry): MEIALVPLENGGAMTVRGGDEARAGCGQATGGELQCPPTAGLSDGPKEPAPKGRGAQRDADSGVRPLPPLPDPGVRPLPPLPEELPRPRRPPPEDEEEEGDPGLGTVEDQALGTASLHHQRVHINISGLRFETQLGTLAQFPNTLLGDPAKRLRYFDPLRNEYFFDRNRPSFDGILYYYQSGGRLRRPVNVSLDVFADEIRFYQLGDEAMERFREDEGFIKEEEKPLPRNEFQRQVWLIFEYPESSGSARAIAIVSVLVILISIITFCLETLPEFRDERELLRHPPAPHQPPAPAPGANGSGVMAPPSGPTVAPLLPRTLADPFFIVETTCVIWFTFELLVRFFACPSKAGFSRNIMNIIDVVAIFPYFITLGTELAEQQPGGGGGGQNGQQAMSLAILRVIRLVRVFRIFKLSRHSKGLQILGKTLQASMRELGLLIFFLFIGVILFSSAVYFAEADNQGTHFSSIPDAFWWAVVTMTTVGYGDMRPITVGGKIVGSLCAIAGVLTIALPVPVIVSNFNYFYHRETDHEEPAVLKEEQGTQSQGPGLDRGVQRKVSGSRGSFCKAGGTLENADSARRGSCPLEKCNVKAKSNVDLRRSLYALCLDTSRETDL

Row | Compound | IC50 [nM]
1 | O=C1CCCN1[C@@H](c1ccccc1)[C@H](OC1CC1)c1ccccc1 (racemic) [Example 32, 1S,2R-1-(Cyclopropoxy-1,2-diphenylethyl)pyrrolidin-2-one] | 600
2 | COc1ccc([C@@H](Oc2ccc(C#N)cc2)[C@H](c2ccc(F)cc2)N2CCCC2=O)cc1 (racemic) [Example 59] | 1900
3 | N#Cc1ccc(O[C@H](c2ccc(Cl)cc2)[C@H](c2ccccc2)N2CCCC2=O)cc1 (racemic) [Example 45] | 1000
4 | N#Cc1ccc(O[C@@H](c2cccc3cccnc23)[C@H](c2ccc(F)cc2)N2CCCC2=O)cc1 (racemic) [Example 10, 4-[(1R′,2R′)-2-(4-Fluorophenyl)-2-(2-oxopyrrolidin-1-yl)-1-quinolin-8-ylethoxy]benzonitrile] | 4400
5 | COCCO[C@H](c1ccc(Cl)cc1)[C@H](c1ccccc1)N1CCCC1=O (racemic) [Example 47] | 1000
6 | O=C1CCCN1[C@@H](c1ccc(F)cc1)[C@H](OCC1CC1)c1ccc(F)c(F)c1 (racemic) [Example 42] | 600
7 | N#Cc1ccc(O[C@H](c2ccc(F)c(F)c2)[C@@H](c2ccc(F)cc2)N2CCCC2=O)cc1 (racemic) [Example 102] | 5400
8 | N#Cc1ccc(O[C@H](c2cc(F)cc(F)c2)[C@H](c2ccc(F)cc2)N2CCCC2=O)cc1 (racemic) [Example 106] | 8300
9 | COc1ccc(CO[C@H](c2ccc(F)c(F)c2)[C@H](c2ccc(F)cc2)N2CCCC2=O)cc1 (racemic) [Example 48] | 2100
10 | N#Cc1ccc(OC(c2ccc(C#N)cc2)C(c2ccc(F)cc2)N2CCCC2=O)cc1 (stereo not drawn) [Example 113] | ~10000
11 | O=C1CCCN1[C@@H](c1ccc(F)cc1)[C@H](OC1CC1)c1ccc(F)c(F)c1 (racemic) [Example 49] | 500
12 | C=CO[C@H](c1ccc(F)c(F)c1)[C@H](c1ccc(F)cc1)N1CCCC1=O [Example 121] | 900
13 | CCCO[C@H](c1ccc(F)cc1)[C@@H](c1ccc(F)cc1)N1CCCC1=O (racemic) [Example 33] | 900
14 | N#Cc1ccc(O[C@H](c2ccc(F)cc2)[C@H](c2ccc(F)cc2)N2CCCC2=O)cc1 (racemic) [Example 92] | 3800
15 | CCCO[C@H](c1ccccc1)[C@@H](c1ccccc1)N1CCCC1=O (racemic) [Example 19] | 300
16 | N#Cc1ccc(OC(c2ccnc3ccccc23)C(c2ccc(F)cc2)N2CCCC2=O)cc1 (stereo not drawn) [Example 105] | 4600
17 | O=C1CCCN1[C@@H](c1ccc(F)cc1)[C@H](OCCCC(F)(F)F)c1ccc(F)c(F)c1 (racemic) [Example 34] | 1000
18 | C#CCO[C@H](c1ccc(F)c(F)c1)[C@H](c1ccc(F)cc1)N1CCCC1=O (racemic) [Example 38] | 700
19 | O=C1CCCN1[C@@H](c1ccc(F)cc1)[C@H](OCC1CC1)c1ccc(F)cc1 (racemic) [Example 117] | 300
20 | O=C1CCCN1[C@@H](c1ccccn1)[C@H](OCC1CC1)c1ccccc1 (racemic) [Example 5, 1-[(1R′,2S′)-2-Cyclopropylmethoxy-2-phenyl-1-pyridin-2-ylethyl]pyrrolidin-2-one] | 1300
21 | O=C1CCCN1[C@@H](c1ccc(F)cc1)[C@H](OCC1CC1)c1cc(F)cc(F)c1 (racemic) [Example 37] | 700
22 | O=C1CCCN1[C@H](c1ccccc1)[C@H](OCC1CC1)c1ccc(F)cc1 (racemic) [Example 21] | 800
23 | O=C1CCCN1[C@H](c1ccc(F)cc1)[C@@H](OCC1CC1)c1cccc2ccccc12 (racemic) [Example 11, 1-[(1S′,2R′)-2-Cyclopropylmethoxy-1-(4-fluorophenyl)-2-naphthalen-1-ylethyl]pyrrolidin-2-one] | 200
24 | O=C1CCCN1[C@@H](c1ccccc1)[C@H](OCc1cccc(Cl)c1)c1ccc(Cl)cc1 (racemic) [Example 40] | 800

Row | Compound | IC50 [nM]
25 | CCCO[C@H](c1ccccc1)[C@H](c1ccccc1)N1CCCC1=O [Example 15] | 160
26 | COc1ccc(CO[C@H](c2ccc(F)cc2)[C@@H](c2ccccc2)N2CCCC2=O)cc1 (racemic) [Example 95] | 5200
27 | CO[C@H](c1ccc(F)c(F)c1)[C@H](c1ccc(F)cc1)N1CCCC1=O (racemic) [Example 87] | 4200
28 | C[C@@](c1ccccc1)([C@H](OCC1CC1)c1ccccc1)N1CCCC1=O (racemic) [Example 31] | 1400
29 | O=C1CCCN1[C@@H](c1ccc(F)cc1)[C@H](OCCCC(F)(F)F)c1cccnc1 (racemic) [Example 2, 1-[(1R′,2S′)-1-(4-Fluorophenyl)-2-pyridin-3-yl-2-(4,4,4-trifluorobutoxy)-ethyl]pyrrolidin-2-one] | 6000
30 | O=C1CCCN1C(c1ccc(F)cc1)C(OCCCC(F)(F)F)c1cccc2cccnc12 (stereo not drawn) [Example 111] | 8800
31 | CCCO[C@@H](c1ccc(Cl)cc1)[C@H](c1ccccc1)N1CCCC1=O (racemic) [Example 28] | 900
32 | N#Cc1ccc(O[C@@H](c2ccnc3ccccc23)[C@H](c2ccc(F)cc2)N2CCCC2=O)cc1 (racemic) [Example 109] | 9600
33 | N#Cc1ccc(O[C@H](c2ccc(F)c(F)c2)[C@H](c2ccc(F)cc2)N2CCCCC2=O)cc1 (racemic) [Example 107] | 9600
34 | N#Cc1ccc([C@@H](OCC2CC2)[C@H](c2ccc(F)cc2)N2CCCC2=O)cc1 (racemic) [Example 41] | 1000
35 | CO[C@H](C1CCCCC1)[C@H](c1ccc(F)cc1)N1CCCC1=O (racemic) [Example 78] | 3300
36 | O=C1CCCN1[C@@H](c1ccc(F)cc1)[C@H](OCC1CC1)c1ccc(C(F)(F)F)cc1 (racemic) [Example 80] | 1400
37 | CCCO[C@H](c1ccccc1)[C@H](c1ccccc1)N1CCCS1(=O)=O [Example 7, (1S,2R)-2-(1,2-Diphenyl-2-propoxyethyl)isothiazolidine-1,1-dioxide] | 600
38 | CCCO[C@@H](c1ccccc1)[C@@H](c1ccccc1)N1CCCS1(=O)=O [Example 54] | 1700
39 | COc1ccc(CO[C@@H](c2ccccc2)[C@@H](c2ccccc2)N2CCCCC2=O)cc1 [Example 103] | 6600
40 | CO[C@H](c1ccc(F)cc1)[C@H](c1ccc(F)cc1)N1CCCC1=O (racemic) [Example 79] | 3400
41 | O=C1CCCN1[C@@H](c1cccnc1)[C@H](OCc1ccc(Cl)cc1)c1ccc(F)c(F)c1 (racemic) [Example 100] | 5400
42 | O=C1CCCN1[C@@H](c1ccccc1)[C@@H](OCc1ccccc1)c1ccc(F)cc1 (racemic) [Example 53] | 1800
43 | CCO[C@H](c1ccc(Cl)cc1)[C@H](c1ccccc1)N1CCCC1=O (racemic) [Example 68] | 500
44 | C[C@](c1ccccc1)([C@H](OCC1CC1)c1ccccc1)N1CCCC1=O (racemic) [Example 29] | 900
45 | CCCO[C@H](c1ccc(F)cc1)[C@H](c1ccccc1)N1CCCC1=O (racemic) [Example 20] | 300
46 | O=C1CCCCN1[C@@H](c1ccc(F)cc1)[C@H](OCC1CC1)c1ccc(F)c(F)c1 (racemic) [Example 14] | 330
47 | COc1ccc(CO[C@H](c2ccc(F)cc2)[C@H](c2cccc3cccnc23)N2CCCC2=O)cc1 (racemic) [Example 98] | 5500
48 | O=C1CCCCN1[C@H](c1ccccc1)[C@@H](OCC1CC1)c1ccccc1 [Example 74] | 1400
